Results as given in patent US11649236B2, “Polycyclic carbamoylpyridone derivative” (Shionogi & Co., Ltd., priority 2018, dated 2023).

What was measured:
[1] = target: Voltage gated sodium channel (Nav 1.5 channel) (Homo sapiens, UniProt Q14524); conditions: pH 7.4
Text: For the purpose of assessing risk of arrhythmogenesis of the compound of the present invention, effects of the compound of the present invention on Na^+ current (INa), which plays an important role in the depolarization process of myocardium, was studied using HEK cells expressing Voltage gated sodium channel (Nav 1.5 channel) encoded by SCN5A gene. A cell is retained at a membrane potential of −100 mV by the whole cell patch clamp method using an automated patch clamp system (QPatch; Sophion Bioscience A/S), then INa induced by depolarization stimulation at −10 mV for 20 milliseconds, was recorded. […] From the obtained INa, an absolute value of the maximum peak current was measured based on the current value at the resting membrane potential using analysis software (QPatch Assay software; Sophion Bioscience A/S). The maximum peak current at the time of the application of the compound of the present invention with respect to the maximum peak current at the time of the application of the vehicle was further calculated to evaluate the influence of the compound of the present invention on INa.

[2] = test system: HIV mutant strain 2 (E92Q/E138T/G140S/Q148H); test: Resistance evaluation test (HeLa-CD4 reporter), mutant strain 2; assay type: cell-based; conditions: FC=EC50 of mutant strain/EC50 of wild strain, HeLa-CD4 cells
Experimental: (§1) Serial dilutions of a test sample were prepared in a96-well microplate (50 μL/well). 2.5×10^5 cells/mL of a HeLa-CD4 cell suspension was dispensed at 100 μL/well to the plate containing the test sample. Then, an HIV virus solution (wild strain and mutant strain) was dispensed at 50 μL/well. The plate was mixed with a plate mixer and cultured for 3 days in a CO2 incubator. The culture supernatant in each well was removed by suction. A cell lysis buffer in a reporter assay kit was dispensed at 100 μL/well, and the plate was frozen in a freezer (−80° C.). The plate frozen in a freezer was thawed at room temperature, then mixed with a plate mixer, and centrifuged at 1,200 rpm for 5 minutes. The supernatant of each well was dispensed at 20 μL/well to a 96-well microplate (BLACK). A chemiluminescent reagent in the reporter assay kit was dispensed at 100 μL/well and reacted at room temperature for approximately 1 hour. Then, luminescence intensity was measured using MicroBeta TRILUX. […] FC=EC50 of mutant strain/EC50 of wild strain (Results) FC for the mutant strain 1 (E138K/G140S/Q148H/N155H) and FC for the mutant strain 2 (E92Q/E138T/G140S/Q148H) are shown in the table.

[3] = test system: HIV; test: Anti-HIV activity (MT-4 cells, MTT); assay type: cell-based; conditions: Human immunodeficiency virus 1, MT4, 96 h, cultured 4 days
Procedure, shortened: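 MT-4 cells (2.5×10^5 cells/mL) mixed with serial dilutions of test sample and HIV, cultured 4 days in CO2 incubator. MTT added for 1 h, cells lysed, absorbance read at 560 nm and 690 nm.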

[4] = test system: HIV mutant strain 1 (E138K/G140S/Q148H/N155H); test: Resistance evaluation test (HeLa-CD4 reporter), mutant strain 1; assay type: cell-based; conditions: FC=EC50 of mutant strain/EC50 of wild strain, HeLa-CD4 cells
Experimental: as §1

[5] = test system: HIV; test: Anti-HIV activity evaluation test using PBMC of healthy humans; assay type: cell-based; conditions: Human immunodeficiency virus 1, 96 h, read-out: 90% HIV inhibitory concentration (EC90); PHA-stimulated PBMC, 4 days, reverse transcriptase activity
Experimental: Serial dilutions of a test sample were prepared in a 96-well microplate (50 μL/well). 1.0×10^5/well of PBMC stimulated with Phytohemagglutinin (PHA) and an HIV viral solution were mixed in the required number of wells and the mixture was reacted at 37° C. for 1 hour. After the reaction, the cell suspension was centrifuged and the supernatant was discarded, and the infected cells were dispersed in the culture medium in the required number of wells at 150 μL/well. The obtained medium was dispensed at 150 μL/well to a 96-well microplate containing the test sample. The plate was mixed with a plate mixer and cultured for 4 days in a CO2 incubator. The reverse transcriptase activity in the culture medium was measured.

[6] = Metabolic stability test; assay type: in vitro ADME, human; design: key: % remaining vs amount at 0 min (=100%); conditions: compound 0.5 μmol/L, human liver microsomes 0.5 mg protein/mL, NADPH, 37° C., 30 minutes; amount at 0 minutes defined as 100%
Experimental: Commercially available pooled human liver microsomes were reacted with the compound of the present invention for a certain time. A residual rate was calculated by the comparison between the reacted sample and an unreacted sample to evaluate the degree at which the compound of the present invention is metabolized in the liver. A reaction was performed (oxidative reaction) at 37° C. for 0 minutes or 30 minutes in the presence of 1 mmol/L NADPH in 0.2 mL of a buffer (50 mmol/L Tris-HCl pH 7.4, 150 mmol/L potassium chloride, 10 mmol/L magnesium chloride) containing 0.5 mg protein/mL of human liver microsomes. After the reaction, 50 μL of the reaction solution was added to 100 μL of a solution of methanol/acetonitrile=1/1 (v/v) and mixed, and the mixture was centrifuged at 3000 rpm for 15 minutes. The compound of the present invention in the centrifugation supernatant was quantified by LC/MS/MS or solid-phase extraction (SPE)/MS. The amount of the compound of the present invention remaining after the reaction was calculated with the amount of the compound at 0 minutes of the reaction defined as 100%.

[7] = test system: HIV; test: Anti-HIV activity evaluation test in the presence of human serum protein (MT-4 cells); assay type: cell-based; conditions: PS=4×(EC50 in 25% human serum protein/EC50 in absence), 100% extrapolation value
Experimental: Serial dilutions of a test sample were prepared in a 96-well microplate (50 μL/well). A human serum protein solution (50% human serum protein concentration) was dispensed at 100 μL/well into a 96-well microplate containing the test sample, and allowed to be left still at room temperature for 1 hour. For the plate of serum absence, the culture medium was dispensed at 100 μL/well. 3.0×10^5/well of MT-4 cells and 3 μL/well of an HIV viral solution were mixed in an amount of the required number of wells, and the mixture was reacted at 37° C. for 1 hour. After the reaction, the cell suspension was centrifuged and the supernatant was discarded, and the infected cells were dispersed in the culture medium in an amount of the required number of wells at 50 μL/well, and dispensed at 50 μL/well to a 96-well microplate containing the test sample and human serum protein (final concentration of the human serum protein: 25%). The plate was mixed with a plate mixer and cultured for 4 days in a CO2 incubator. An MTT (3-(4,5-dimethylthiazol-2-yl)-2,5-diphenyltetrazolium bromide) solution was dispensed at 30 μL/well. The plate was reacted for 1 hour in a CO2 incubator. 150 μL of the supernatant was removed from each well so as not to take up the cells. […] The absorbance of the mixed plate was measured at two wavelengths of 560 nm and 690 nm using a microplate reader. […]

[8] = Clearance evaluation test; assay type: in vivo; conditions: rat, plasma, 1 umol/kg, rats, intravenous 1 μmol/kg
Text: Experimental Material and Method (1) Animals used: rats were used. (2) Rearing conditions: the rats were allowed to freely take solid feed and sterilized tap water. (3) Dose and grouping setting: a predetermined dose was intravenously administered. Groups were set as follows: Intravenous administration: 1 μmol/kg (n=2) (4) Preparation of dosing solution: the test sample was solubilized using a solvent of dimethyl sulfoxide/propylene glycol=1/1 and administered. (5) Administration method: the test sample was administered to the tail vein through a syringe with an injection needle. (6) Evaluation item: blood was collected over time, and the concentration of the compound of the present invention in plasma was measured using LC/MS/MS. (7) Statistical analysis: total body clearance (CLtot) and elimination half-life (t½) were calculated as to change in the concentration of the compound of the present invention in plasma by the moment analysis method.

Voltage gated sodium channel (Nav 1.5 channel), sequence (Q14524 whole entry): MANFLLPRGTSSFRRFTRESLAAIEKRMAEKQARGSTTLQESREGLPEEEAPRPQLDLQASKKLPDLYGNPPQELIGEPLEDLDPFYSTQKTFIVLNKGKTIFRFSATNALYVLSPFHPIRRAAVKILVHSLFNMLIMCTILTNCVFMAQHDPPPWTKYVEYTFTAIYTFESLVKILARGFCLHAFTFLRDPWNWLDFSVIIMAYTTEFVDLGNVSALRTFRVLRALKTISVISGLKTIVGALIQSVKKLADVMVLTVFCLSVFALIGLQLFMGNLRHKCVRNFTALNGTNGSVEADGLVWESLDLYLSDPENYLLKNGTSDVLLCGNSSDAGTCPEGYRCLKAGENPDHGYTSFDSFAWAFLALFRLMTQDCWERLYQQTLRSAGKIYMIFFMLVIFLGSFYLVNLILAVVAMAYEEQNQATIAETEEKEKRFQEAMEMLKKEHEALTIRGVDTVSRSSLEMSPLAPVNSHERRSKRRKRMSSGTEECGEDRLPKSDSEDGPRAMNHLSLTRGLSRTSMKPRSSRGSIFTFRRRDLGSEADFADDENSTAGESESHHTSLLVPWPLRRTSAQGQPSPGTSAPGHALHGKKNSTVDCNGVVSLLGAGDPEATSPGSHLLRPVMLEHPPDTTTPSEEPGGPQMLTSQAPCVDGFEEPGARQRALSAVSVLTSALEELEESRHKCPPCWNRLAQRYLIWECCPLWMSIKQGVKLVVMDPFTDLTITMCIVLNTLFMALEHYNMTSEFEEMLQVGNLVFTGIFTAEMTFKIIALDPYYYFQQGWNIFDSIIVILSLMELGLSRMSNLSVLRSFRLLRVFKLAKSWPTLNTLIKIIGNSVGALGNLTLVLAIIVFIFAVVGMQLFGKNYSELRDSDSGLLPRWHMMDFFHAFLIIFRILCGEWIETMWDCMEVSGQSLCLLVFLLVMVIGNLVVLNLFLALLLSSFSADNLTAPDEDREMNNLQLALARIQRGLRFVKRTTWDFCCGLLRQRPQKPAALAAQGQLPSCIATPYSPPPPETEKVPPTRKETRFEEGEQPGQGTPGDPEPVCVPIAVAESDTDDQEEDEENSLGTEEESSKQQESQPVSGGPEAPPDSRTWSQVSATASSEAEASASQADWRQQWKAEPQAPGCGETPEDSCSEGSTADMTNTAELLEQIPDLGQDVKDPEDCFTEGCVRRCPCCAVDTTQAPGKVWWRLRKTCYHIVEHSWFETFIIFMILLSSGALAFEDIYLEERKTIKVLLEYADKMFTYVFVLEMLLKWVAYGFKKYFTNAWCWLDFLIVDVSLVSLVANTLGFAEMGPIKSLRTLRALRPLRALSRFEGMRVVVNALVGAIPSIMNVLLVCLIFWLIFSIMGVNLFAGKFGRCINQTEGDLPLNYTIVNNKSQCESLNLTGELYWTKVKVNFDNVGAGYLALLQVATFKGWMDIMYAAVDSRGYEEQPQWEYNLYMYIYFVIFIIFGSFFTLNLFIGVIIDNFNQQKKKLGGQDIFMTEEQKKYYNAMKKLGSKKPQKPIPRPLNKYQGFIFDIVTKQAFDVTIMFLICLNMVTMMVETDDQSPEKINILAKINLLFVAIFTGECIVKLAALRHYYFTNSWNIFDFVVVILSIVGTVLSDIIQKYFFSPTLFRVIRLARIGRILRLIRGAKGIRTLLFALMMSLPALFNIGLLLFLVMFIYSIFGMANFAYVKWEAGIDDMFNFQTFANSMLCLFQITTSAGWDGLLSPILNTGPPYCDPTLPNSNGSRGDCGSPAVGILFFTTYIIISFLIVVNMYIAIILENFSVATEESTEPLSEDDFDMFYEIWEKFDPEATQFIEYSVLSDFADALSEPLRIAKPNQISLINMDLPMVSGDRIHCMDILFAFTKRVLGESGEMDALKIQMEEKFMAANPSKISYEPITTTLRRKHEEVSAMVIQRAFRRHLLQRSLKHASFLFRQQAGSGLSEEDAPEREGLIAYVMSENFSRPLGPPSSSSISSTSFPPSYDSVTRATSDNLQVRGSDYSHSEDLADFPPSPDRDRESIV

SMILES	maximum peak current (INa) with compound with respect to vehicle [1]	FC mutant strain 2 [2]	EC50 [3]	FC mutant strain 1 [4]	EC90 [5]	residual rate [6]	Potency shift (PS) [7]	half-life ([8]; read-out: elimination half-life (t½) (converted))	clearance ([8]; read-out: total body clearance (CLtot))
COC[C@@H]1CC[C@H]2N(C)C(=O)c3c(O)c(=O)c(C(=O)NCc4cccc(Cl)c4F)cn3N12 [II-031]	79%	6.9	0.34 nM	10	0.73 nM	86	364	–	–
CC(C)N1C(=O)c2c(O)c(=O)c(C(=O)NCc3ccc(F)cc3F)cn2N2C[C@@H]3CC[C@@H](O3)[C@@H]12 [II-021]	–	9	0.72 nM	6.6	–	89.1	–	–	–
CCN1C(=O)c2c(O)c(=O)c(C(=O)NCc3c(F)cc(F)cc3F)cn2N2C[C@@H](C)C[C@@H]12 [II-049]	–	17	0.77 nM	18	–	83.2	–	–	–
CCN1C(=O)c2c(O)c(=O)c(C(=O)NCc3ccc(F)cc3F)cn2N2[C@H](COC)CC[C@@H]12 [II-093]	–	38	0.32 nM	39	–	97.5	–	–	–
C[C@H]1C[C@H]2N(C)C(=O)c3c(O)c(=O)c(C(=O)NCc4cccc(Cl)c4F)cn3N2C1 [II-042]	–	7.9	3.2 nM	15	–	97.4	–	–	–
CC(C)N1C(=O)c2c(O)c(=O)c(C(=O)NCc3ccccc3F)cn2N2C[C@@H]3CC[C@@H](O3)[C@@H]12 [II-013]	–	6.4	0.4 nM	5.6	–	87	–	–	–
CN1C(=O)c2c(O)c(=O)c(C(=O)NCc3cccc(Cl)c3F)cn2N2C[C@@H]3CC[C@@H](C3)[C@@H]12 [II-028]	–	15	1.4 nM	9.9	–	74.2	–	26.7 h	0.102 mL/min/kg
CC(C)N1C(=O)c2c(O)c(=O)c(C(=O)NCc3c(F)cc(F)cc3F)cn2N2C[C@@H]3CC[C@@H](O3)[C@@H]12 [II-005]	–	7.4	0.62 nM	3.1	–	80.2	–	–	–
CCN1C(=O)c2c(O)c(=O)c(C(=O)NCc3c(F)cc(F)cc3F)cn2N2CCCC[C@@H]12 [Compound I-011]	–	10	2.2 nM	13	–	88	–	–	–
COC[C@@H]1CC[C@H]2N(C(C)C)C(=O)c3c(O)c(=O)c(C(=O)NCc4ccccc4F)cn3N12 [II-009]	–	7.7	2.6 nM	4.6	–	80.8	–	–	–
CCN1C(=O)c2c(O)c(=O)c(C(=O)NCc3ccc(F)cc3F)cn2N2CC[C@H](C)C[C@@H]12 [II-071]	–	22	0.74 nM	27	–	104	–	–	–
CCN1C(=O)c2c(O)c(=O)c(C(=O)NCc3ccc(F)cc3F)cn2N2C[C@H](COC)C[C@@H]12 [II-105]	–	62	0.58 nM	48	–	84.3	–	–	–
CCN1C(=O)c2c(O)c(=O)c(C(=O)NCc3c(F)cc(F)cc3F)cn2N2C[C@@H](C)CC[C@@H]12 [II-020]	–	8.9	1.5 nM	6.4	–	90.7	–	–	–
CCN1C(=O)c2c(O)c(=O)c(C(=O)NCc3ccc(F)cc3F)cn2N2C[C@@H](COC)C[C@@H]12 [II-041]	–	28	0.66 nM	15	–	94.3	–	–	–
CCN1C(=O)c2c(O)c(=O)c(C(=O)NCc3ccc(F)cc3F)cn2N2C[C@@H]3CCC[C@@H](C3)[C@@H]12 [II-018]	–	8.7	2.9 nM	6.1	–	77.6	–	–	–
CCN1C(=O)c2c(O)c(=O)c(C(=O)NCc3ccc(F)cc3F)cn2N2C[C@@H](C)C[C@@H]12 [II-051]	–	21	0.74 nM	19	3.3 nM	96	236	–	–
CCN1C(=O)c2c(O)c(=O)c(C(=O)NCc3c(F)cc(F)cc3F)cn2N2C[C@@H]3CC[C@@H](C3)[C@@H]12 [II-015]	–	7.3	0.95 nM	5.7	–	74.3	–	–	–
CN1C(=O)c2c(O)c(=O)c(C(=O)NCc3cccc(F)c3F)cn2N2CCCC[C@@H]12 [II-104]	–	17	0.69 nM	48	–	96.9	–	–	–
CN1C(=O)c2c(O)c(=O)c(C(=O)NCc3c(F)cc(F)cc3F)cn2N2CCCC[C@@H]12 [II-087]	–	14	1.4 nM	38	–	105	–	–	–
CN1C(=O)c2c(O)c(=O)c(C(=O)NCc3cccc(Cl)c3F)cn2N2CCOC[C@@H]12 [II-108]	–	27	0.61 nM	50	–	97.2	–	–	–
CN1C(=O)c2c(O)c(=O)c(C(=O)NCc3cccc(Cl)c3F)cn2N2C[C@@H]3CCC[C@@H](C3)[C@@H]12 [II-153]	–	10	0.74 nM	18	–	75.4	–	–	–
